SMILES strings stand for the structures. Read-outs that look alike come from different tables or passages of the source.

The results in this text go back to US20180030500A1, “ENRICHMENT AND SELECTIVE CULTURE OF MYCOBACTERIA” (priority 2015, published 2018).

The test system of one test is Mycobacteria. To be noted: 20 strains, 7 days.
A further test relates to Fungi/yeasts. Conditions: 8 strains, 7 days.
[1] abbreviates: selective agent 5 mg/l in medium L.
Setting [2] is: selective agent 10 mg/l in medium L.
Setting [3] is: selective agent 20 mg/l in medium L.

On to `C[C@@H]1[C@H](O)[C@@H](C)/C=C/C=C/C=C/C=C/C=C/C=C/C=C/[C@H](O[C@@H]2O[C@H](C)[C@@H](O)[C@H](N)[C@@H]2O)C[C@@H]2O[C@](O)(C[C@@H](O)C[C@@H](O)[C@H](O)CC[C@@H](O)C[C@@H](O)CC(=O)O[C@H]1C)C[C@H](O)[C@H]2C(=O)O` [amphotericin B], for which the “Number of strains having shown growth” value in the test on Mycobacteria (setting [1]) turned out to be 20; in the test with Mycobacteria (setting [2]), 20; with Mycobacteria (setting [3]) it was 20; in the test with Fungi/yeasts (setting [1]) it was 6; in the test on Fungi/yeasts (setting [2]), 4; with Fungi/yeasts (setting [3]) it was 3. The “Percentage of strains having shown growth” value with Mycobacteria (setting [1]) is “(100%)”; with Mycobacteria (setting [2]), “(100%)”; in the test on Mycobacteria (setting [3]) it was “(100%)”; with Fungi/yeasts (setting [1]), “(75%)”; with Fungi/yeasts (setting [2]) it was “(50%)”; in the test on Fungi/yeasts (setting [3]) it was “(37.5%)”.
